Test results from PubChem BioAssay AID1918952 (Molecular Pharmacology Branch, DTP, NCI, 2023).

System: LG0703-F948-PDC complex spheroid viability
Assay: Anticancer human tumor LG0703-F948-PDC patient-derived lung adenocarcinoma cell line growth inhibition
Conditions: for IC50: curve of first compound; for viability, T/C: stronger effect = lower value
Procedure, shortened: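 Complex spheroids of tumor cells with HUVEC and human MSCs, exposed to iadademstat combined with other agents. Each agent tested in half-log steps from near clinical Cmax (else 10 microM top), DMSO ≤0.25%.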

[1] = second compound 0.1 µM, first compound 0.0316 µM
[2] = second compound 0.1 µM, first compound 0.1 µM
[3] = second compound 0.1 µM, first compound 0.316 µM
[4] = second compound 0.1 µM, first compound 1 µM
[5] = second compound 0.1 µM, first compound 3.16 µM
[6] = second compound 0.1 µM, first compound 10 µM
[7] = second compound 0.316 µM, first compound 0.0316 µM
[8] = second compound 0.316 µM, first compound 0.1 µM
[9] = second compound 0.316 µM, first compound 0.316 µM
[10] = second compound 0.316 µM, first compound 1 µM
[11] = second compound 0.316 µM, first compound 3.16 µM
[12] = second compound 0.316 µM, first compound 10 µM
[13] = second compound 1 µM, first compound 0.0316 µM
[14] = second compound 1 µM, first compound 0.1 µM
[15] = second compound 1 µM, first compound 0.316 µM
[16] = second compound 1 µM, first compound 1 µM
[17] = second compound 1 µM, first compound 3.16 µM
[18] = second compound 1 µM, first compound 10 µM
[19] = second compound 3.16 µM, first compound 0.0316 µM
[20] = second compound 3.16 µM, first compound 0.1 µM
[21] = second compound 3.16 µM, first compound 0.316 µM
[22] = second compound 3.16 µM, first compound 1 µM
[23] = second compound 3.16 µM, first compound 3.16 µM
[24] = second compound 3.16 µM, first compound 10 µM
[25] = second compound 10 µM, first compound 0.0316 µM
[26] = second compound 10 µM, first compound 0.1 µM
[27] = second compound 10 µM, first compound 0.316 µM
[28] = second compound 10 µM, first compound 1 µM
[29] = second compound 10 µM, first compound 3.16 µM
[30] = second compound 10 µM, first compound 10 µM
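Also: spheroids exposed to agents for seven days before readout.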
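For viability, T/C in this document: 100% = DMSO vehicle control wells as normalization base.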

| Compound | IC50 (second compound 0.1 µM) [nM] | IC50 (second compound 0.316 µM) [nM] | IC50 (second compound 1 µM) [nM] | IC50 (second compound 3.16 µM) [nM] | IC50 (second compound 10 µM) [nM] | viability, T/C [1] [%] | viability, T/C [2] [%] | viability, T/C [3] [%] | viability, T/C [4] [%] | viability, T/C [7] [%] | viability, T/C [8] [%] | viability, T/C [9] [%] | viability, T/C [10] [%] | viability, T/C [13] [%] | viability, T/C [14] [%] | viability, T/C [15] [%] | viability, T/C [16] [%] | viability, T/C [19] [%] | viability, T/C [20] [%] | viability, T/C [21] [%] | also measured |
| --- | --- | --- | --- | --- | --- | --- | --- | --- | --- | --- | --- | --- | --- | --- | --- | --- | --- | --- | --- | --- | --- |
| CC(C)c1c(-c2ccccc2)nc2c(C#N)c[nH]n2c1=O + NC1CCC(NC2CC2c2ccccc2)CC1 | > 10000 | > 10000 | > 10000 | > 10000 | > 10000 | 101 | 95.8 | 85.5 | 90.1 | 98.1 | 104 | 97.4 | 95 | 110 | 102 | 106 | 83 | 106 | 108 | 108 | viability, T/C [5]: 102%; viability, T/C [6]: 78.3%; viability, T/C [11]: 101%; viability, T/C [12]: 85.9%; viability, T/C [17]: 98.4%; viability, T/C [18]: 89.1%; viability, T/C [22]: 105%; viability, T/C [23]: 107%; viability, T/C [24]: 94.1%; viability, T/C [25]: 110%; viability, T/C [26]: 119%; viability, T/C [27]: 113%; viability, T/C [28]: 105%; viability, T/C [29]: 100%; viability, T/C [30]: 85.8% |
| CC1COCCN1c1cc(-c2ccnn2C)c2ccnc(-c3ccn[nH]3)c2n1 (stereo not given) + NC1CCC(NC2CC2c2ccccc2)CC1 | 43.8 | 48.5 | 42.6 | 71.1 | 42.5 | 52.8 | 37.5 | 25.5 | 13.5 | 54.6 | 36.2 | 26.2 | 16 | 60.2 | 34.7 | 21.6 | 17.6 | 77 | 38.1 | 24.2 | viability, T/C (second compound 0.1 µM, first compound 0.00316 µM): 76.3%; viability, T/C (second compound 0.1 µM, first compound 0.01 µM): 71.6%; viability, T/C (second compound 0.316 µM, first compound 0.00316 µM): 69.9%; viability, T/C (second compound 0.316 µM, first compound 0.01 µM): 79.5%; viability, T/C (second compound 1 µM, first compound 0.00316 µM): 99.8%; viability, T/C (second compound 1 µM, first compound 0.01 µM): 72.4%; viability, T/C (second compound 3.16 µM, first compound 0.00316 µM): 78.8%; viability, T/C (second compound 3.16 µM, first compound 0.01 µM): 85.8%; viability, T/C [22]: 13.9%; viability, T/C (second compound 10 µM, first compound 0.00316 µM): 82.3%; viability, T/C (second compound 10 µM, first compound 0.01 µM): 78.9%; viability, T/C [25]: 55.6%; viability, T/C [26]: 30.1%; viability, T/C [27]: 21.1%; viability, T/C [28]: 11.5% |
| COc1ccc([C@@H](O)c2cc(-c3ncnc4cc(N5CCOCC5)ccc34)c(F)cc2Cl)nn1 + NC1CCC(NC2CC2c2ccccc2)CC1 | 1160 | 1170 | 1230 | 1170 | 1030 | 100 | 97.4 | 88.4 | 54.5 | 92.3 | 110 | 87.3 | 54.8 | 110 | 97.4 | 84 | 61.8 | 112 | 95.3 | 89.6 | viability, T/C [5]: 17.4%; viability, T/C [6]: 3.58%; viability, T/C [11]: 18.7%; viability, T/C [12]: 4.54%; viability, T/C [17]: 16.1%; viability, T/C [18]: 3.83%; viability, T/C [22]: 56.5%; viability, T/C [23]: 16.7%; viability, T/C [24]: 3.27%; viability, T/C [25]: 118%; viability, T/C [26]: 107%; viability, T/C [27]: 92.4%; viability, T/C [28]: 52.2%; viability, T/C [29]: 12.4%; viability, T/C [30]: 3.19% |
